Here are results for 23 compounds from patent US11332472B2, “Substituted piperidines as inhibitors of ubiquitin specific protease 7” (LES LABORATOIRES SERVIER, priority 2017, dated 2022).

As a reminder, the IC50 is the concentration that inhibits the measured activity by half. A low value points to greater potency in that assay.

For one assay, the target named is T1, USP7 (Homo sapiens, UniProt Q93009, C315A).
T1 construct: 0.25 nM His-His-USP7 (aa208-560, [C315A]) was incubated with compound; His-His (N)
T1 sequence (Q93009 208-560 C315A): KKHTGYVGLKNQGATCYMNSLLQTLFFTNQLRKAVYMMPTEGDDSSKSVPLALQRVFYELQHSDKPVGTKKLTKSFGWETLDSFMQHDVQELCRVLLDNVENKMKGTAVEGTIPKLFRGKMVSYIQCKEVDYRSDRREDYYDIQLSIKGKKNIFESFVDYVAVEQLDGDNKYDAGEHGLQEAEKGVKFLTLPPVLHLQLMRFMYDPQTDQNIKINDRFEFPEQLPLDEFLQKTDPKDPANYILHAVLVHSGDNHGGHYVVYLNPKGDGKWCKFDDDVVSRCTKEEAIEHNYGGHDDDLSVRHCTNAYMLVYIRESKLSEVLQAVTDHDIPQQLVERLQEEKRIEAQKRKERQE
Nature of the assay: Inhibition of USP7 by Fluorescence Intensity (FLINT) readings, Ubiquitin-Rhodamine-110 substrate. It counts as biochemical. The conditions noted are these: 0.25 nM His-His-USP7 (aa208-560, [C315A]); compound 60 minutes at 30° C.; 500 nM Ubiquitin-Rhodamine substrate; 11-point curves. Summed up: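 His-His-USP7 (aa208-560, C315A) at 0.25 nM was preincubated with compound for 60 min at 30 °C in 100 mM Bicine pH 8.0, 0.01% Triton X-100, 1 mM TCEP, 10% DMSO. 500 nM ubiquitin-rhodamine-110 was then added, with fluorescence (Ex 485/Em 535 nm) read every 3 min for 21 min. IC50 came from kinetic-rate inhibition, 11-point curves, 4-parameter fit.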

Assay [1] relates to MM 1S multiple myeloma tumour cell line. The assay is described as follows: In vitro cytotoxicity, MTT assay, MM1S cells. The format is cell-based. The conditions noted are these: Homo sapiens, MM1.S, 96 hours exposure. As to the method: The cytotoxicity studies were evaluated by MTT assay and carried out on MM 1S multiple myeloma or Z138 mantle cell lymphoma tumour cell lines. The cells are distributed onto microplates and exposed to the test compounds for 96 hours. The cell viability is then quantified by a colorimetric assay, the Microculture Tetrazolium Assay (Carmichael et. al., Cancer Res. […], 47, 936-942).
(Formazan colour is commonly taken as a measure of viable cells.)

On to `COc1ccc(-n2ccc3c(=O)n(CC4(O)CCN(C(=O)[C@@H]5CCCC[C@H]5c5ccccc5)CC4)cnc32)cc1` (relative stereo) [Example 21, 3-[[4-hydroxy-1-(trans-2-phenylcyclohexanecarbonyl) 4-piperidyl]methyl]-7-(4-methoxyphenyl)pyrrolo[2,3-d]pyrimidin-4-one], for which the IC50 worked out at 26.9 nM against USP7 and 3.4 nM in assay [1].

On to `O=C([C@@H]1CC(F)(F)CC[C@H]1c1ccccc1)N1CCC(O)(Cn2cnc3c(ccn3-c3ccccc3)c2=O)CC1` (single isomer, unassigned) [Example 32, 3-[[1-[trans-5,5-difluoro-2-phenyl-cyclohexanecarbonyl]-4-hydroxy-4-piperidyl]methyl]-7-phenyl-pyrrolo[2,3-d]pyrimidin-4-one], for which the IC50 at USP7 is 35.3 nM; in assay [1], 15.8 nM.

Take `O=C(Cc1ccc2c(c1)NC(=O)C2)Nc1ccc2ncn(CC3(O)CCN(C(=O)[C@@H]4CCCC[C@H]4c4ccccc4)CC3)c(=O)c2n1` (relative stereo) [Example 102, N-[3-[[4-hydroxy-1-(trans-2-phenylcyclohexanecarbonyl)-4-piperidyl]methyl]-4-oxo-pyrido[3,2-d]pyrimidin-6-yl]-2-(2-oxoindolin-6-yl)acetamide]: the IC50 came out at 15.8 nM against USP7 and 5390 nM in assay [1].

As for `O=C([C@@H]1CCCC[C@H]1c1ccccc1)N1CCC(O)(Cn2cnc3c(ccn3-c3ccccc3)c2=O)CC1` (relative stereo) [Example 9, 3-[[4-hydroxy-1-(trans-2-phenylcyclohexanecarbonyl)-4-piperidyl]methyl]-7-phenyl-pyrrolo[2,3-d]pyrimidin-4-one], the IC50 was found to be 35.9 nM on USP7 and 13.9 nM in assay [1].

On to `O=C([C@@H]1CCCC[C@H]1c1ccc(F)cc1)N1CCC(O)(Cn2cnc3c(ccn3-c3ccccc3)c2=O)CC1` (single isomer, unassigned) [Example 43, 3-[[1-[trans-2-(4-fluorophenyl)cyclohexanecarbonyl]-4-hydroxy-4-piperidyl]methyl]-7-phenyl-pyrrolo[2,3-d]pyrimidin-4-one], for which the IC50 at USP7 is 9.81 nM; in assay [1] it was 32.3 nM.

For the compound `O=C([C@@H]1CCCC[C@H]1c1ccccc1)N1CCC(O)(Cn2cnc3c(nnn3-c3ccccc3)c2=O)CC1` (relative stereo) [Example 18, 6-[[4-hydroxy-1-(trans-2-phenylcyclohexanecarbonyl)-4-piperidyl]methyl]-3-phenyl-triazolo[4,5-d]pyrimidin-7-one], the IC50 at USP7 was found to be 50.6 nM; in assay [1] it was 636 nM.

For `O=C(C1CC(F)CCC1c1ccccc1)N1CCC(O)(Cn2cnc3c(ccn3-c3ccccc3)c2=O)CC1` (stereo not drawn) [Example 37, 3-[[1-[5-fluoro-2-phenyl-cyclohexanecarbonyl]-4-hydroxy-4-piperidyl]methyl]-7-phenyl-pyrrolo[2,3-d]pyrimidin-4-one], the results for the IC50 (on USP7; in assay [1]) were 46.3 nM and 84.1 nM, respectively.

`O=C([C@@H]1CCCC[C@H]1c1ccccc1)N1CCC(O)(Cn2cnc3c(cnn3-c3ccccc3)c2=O)CC1` (relative stereo) [Example 19, 5-[[4-hydroxy-1-(trans-2-phenylcyclohexanecarbonyl)-4-piperidyl]methyl]-1-phenyl-pyrazolo[3,4-d]pyrimidin-4-one]: the IC50 is 14.3 nM against USP7 and 195 nM in assay [1].

On to `O=C([C@@H]1CCC(F)(F)C[C@H]1c1ccccc1)N1CCC(O)(Cn2cnc3c(ccn3-c3ccccc3)c2=O)CC1` (single isomer, unassigned) [Example 36, 3-[[1-[trans-4,4-difluoro-2-phenyl-cyclohexanecarbonyl]-4-hydroxy-4-piperidyl]methyl]-7-phenyl-pyrrolo[2,3-d]pyrimidin-4-one], for which the IC50 against USP7 turned out to be 75.3 nM; in assay [1], 126 nM.

Take `COc1ccc(-n2ccc3c(=O)n(CC4(O)CCN(C(=O)[C@@H]5CCCC[C@H]5n5cccc5)CC4)cnc32)cc1` (racemic) [Example 15]: the IC50 against USP7 turned out to be 26.1 nM; in assay [1] it was 8.76 nM.

Take `O=C([C@@H]1CCCC[C@H]1c1ccccc1)N1CCC(O)(Cn2cnc3c(ccn3-c3ccsc3)c2=O)CC1` (relative stereo) [Example 23, 3-[[4-hydroxy-1-(trans-2-phenylcyclohexanecarbonyl)-4-piperidyl]methyl]-7-(3-thienyl)pyrrolo[2,3-d]pyrimidin-4-one]: the IC50 against USP7 stood at 17.2 nM; in assay [1] it was 70.1 nM.

As for `O=C([C@@H]1CCCC[C@H]1c1ccccc1)N1CCC(O)(Cn2cnc3c(ccn3-c3ccc(Cl)cc3)c2=O)CC1` (relative stereo) [Example 22, 7-(4-chlorophenyl)-3-[[4-hydroxy-1-(trans-2-phenylcyclohexanecarbonyl)-4-piperidyl]methyl]pyrrolo[2,3-d]pyrimidin-4-one], the results for the IC50 (at USP7; in assay [1]) were 31.6 nM and 9.88 nM, respectively.

Turning to `O=C([C@@H]1CCCC[C@H]1c1ccccc1)N1CCC(O)(Cn2cnc3c(ncn3-c3ccccc3)c2=O)CC1` (relative stereo) [Example 20, 1-[[4-hydroxy-1-(trans-2-phenylcyclohexanecarbonyl)-4-piperidyl]methyl]-9-phenyl-purin-6-one], the values for the IC50 (at USP7; in assay [1]) were 29.3 nM and 210 nM, respectively.

On to `COc1ccc(-n2ccc3c(=O)n(CC4(O)CCN(C(=O)[C@@H]5CCC(F)(F)C[C@H]5c5ccoc5)CC4)cnc32)cc1` (single isomer, unassigned) [Example 75, 3-[[1-[trans-4,4-difluoro-2-(3-furyl)cyclohexanecarbonyl]-4-hydroxy-4-piperidyl]methyl]-7-(4-methoxyphenyl)pyrrolo[2,3-d]pyrimidin-4-one], for which the half-maximal inhibitory concentration (IC50) was determined as 59.1 nM on USP7 and 3.29 nM in assay [1].

As for `O=C([C@@H]1CCCC[C@H]1n1cccc1)N1CCC(O)(Cn2cnc3c(ccn3-c3ccccc3)c2=O)CC1` (racemic) [Example 12, 3-[[4-hydroxy-1-[trans-2-pyrrol-1-ylcyclohexanecarbonyl]-4-piperidyl]methyl]-7-phenyl-pyrrolo[2,3-d]pyrimidin-4-one], the IC50 against USP7 worked out at 71.1 nM; in assay [1], 34.5 nM.

For the compound `COc1ccc(-n2ccc3c(=O)n(CC4(O)CCN(C(=O)[C@@H]5CCCC[C@H]5n5cccc5)CC4)cnc32)cc1` (single isomer, unassigned) [Example 17, 3-[[4-hydroxy-1-[trans-2-pyrrol-1-ylcyclohexanecarbonyl]-4-piperidyl]methyl]-7-(4-methoxyphenyl)pyrrolo[2,3-d]pyrimidin-4-one], the figures for the IC50 (on USP7; in assay [1]) were 33.5 nM and 4.21 nM, respectively.

Consider `CN1C(=O)CC[C@@H](C(=O)N2CCC(O)(Cn3cnc4c(ccn4-c4ccccc4)c3=O)CC2)[C@@H]1c1ccccc1` (single isomer, unassigned) [Example 27, 3-[[4-hydroxy-1-[trans-1-methyl-6-oxo-2-phenyl-piperidine-3-carbonyl]-4-piperidyl]methyl]-7-phenyl-pyrrolo[2,3-d]pyrimidin-4-one], for which the results for the concentration for half-maximal inhibition (IC50) (at USP7; in assay [1]) were 31.5 nM and 46.5 nM, respectively.

On to `O=C([C@@H]1CCCC(F)(F)[C@H]1c1ccccc1)N1CCC(O)(Cn2cnc3c(ccn3-c3ccccc3)c2=O)CC1` (relative stereo) [Example 52, 3-[[1-[trans-3,3-difluoro-2-phenyl-cyclohexanecarbonyl]-4-hydroxy-4-piperidyl]methyl]-7-phenyl-pyrrolo[2,3-d]pyrimidin-4-one], for which the values for the IC50 (against USP7; in assay [1]) were 71.8 nM and 100 nM, respectively.

As for `COc1ccc(-n2ccc3c(=O)n(CC4(O)CCN(C(=O)[C@@H]5CCCO[C@H]5c5ccccc5)CC4)cnc32)cc1` (relative stereo) [Example 24, 3-[[4-hydroxy-1-[trans-2-phenyltetrahydropyran-3-carbonyl]-4-piperidyl]methyl]-7-(4-methoxyphenyl)pyrrolo[2,3-d]pyrimidin-4-one], the values for the IC50 (on USP7; in assay [1]) were 217 nM and 146 nM, respectively.

In the case of `Cn1ccc2c(=O)n(CC3(O)CCN(C(=O)[C@@H]4CCC(F)(F)C[C@H]4c4ccccc4)CC3)cnc21` (single isomer, unassigned) [Example 112, 3-[[1-[trans-4,4-difluoro-2-phenyl-cyclohexanecarbonyl]-4-hydroxy-4-piperidyl]methyl]-7-methyl-pyrrolo[2,3-d]pyrimidin-4-one], the IC50 at USP7 came out at 471 nM.

`O=C([C@@H]1CCO[C@H]1c1ccccc1)N1CCC(O)(Cn2cnc3c(ccn3-c3ccccc3)c2=O)CC1` (relative stereo) [Example 46, 3-[[4-hydroxy-1-[trans-2-phenyltetrahydrofuran-3-carbonyl]-4-piperidyl]methyl]-7-phenyl-pyrrolo[2,3-d]pyrimidin-4-one]: the IC50 against USP7 was found to be 685 nM.

As for `O=C([C@@H]1CC(F)(F)CC[C@H]1c1ccccc1)N1CCC(O)(Cn2cnc3c(ccn3-c3ccccc3)c2=O)CC1` (single isomer, unassigned) [Example 31, 3-[[1-[trans-5,5-difluoro-2-phenyl-cyclohexanecarbonyl]-4-hydroxy-4-piperidyl]methyl]-7-phenyl-pyrrolo[2,3-d]pyrimidin-4-one], the IC50 on USP7 was 2760 nM.

Turning to `COc1ccc(-n2ccc3c(=O)n(CC4(O)CCN(C(=O)[C@@H]5CCCC[C@H]5c5nccn5C)CC4)cnc32)cc1` (single isomer, unassigned) [Example 70, 3-[[4-hydroxy-1-[trans-2-(1-methylimidazol-2-yl)cyclohexanecarbonyl]-4-piperidyl]methyl]-7-(4-methoxyphenyl)pyrrolo[2,3-d]pyrimidin-4-one], at USP7, the midpoint of inhibition, the IC50, lay at 9230 nM.
